Where two headings read alike, the source gives them in different places.
Columns and labels:
[1] = test system: Primary hippocampal neurons; experiment: Neurite outgrowth and neurogenesis; type: cell-based, mouse; settings: HCQ 25, 2.5 or 0.25 μM
Protocol: Neurite outgrowth and neurogenesis: Primary hippocampal neurons were prepared from E18.5 timed pregnant C57BL/6JRccHsd mice as previously described. Cells were seeded in poly-D-lysine pre-coated 96-well plates at a density of 2.6×10^4 cells/well in (Neurobasal, 2% B-27, 0.5 mM glutamine, 25 μM glutamate, 1% Penicillin-Streptomycin). Directly on DIV1 HCQ (TargetMol, T0951) at 25 μM, 2.5 μM or 0.25 μM concentrations or vehicle control was applied. On DIV2 10 μM Bromodeoxyuridine (BrdU; B5002 Sigma Aldrich) was added and cells were fixed after additional 24 h. Cells were permeabilized with 0.1% Triton-X and incubated with primary Beta Tubulin Isotype III (T8660, Sigma Aldrich) and BrdU antibodies (MAS250c, AHrlan-Sera Lab) overnight at 4° C. Afterwards cells were washed two times with PBS and incubated with fluorescently labeled secondary antibodies and DAPI for 1.5 hour at RT in the darkness. Cells were rinsed three times with PBS imaged with the Cytation 5 Multimode reader (BioTek) at 10× magnification (6 images per well). BrdU positive cells were counted as marker for neurogenesis and Beta Tubulin Isotype III signal was used for macro-based quantification of neurite outgrowth.

[2] = test system: Alzheimer's disease and related dementia (ADRD) in rheumatoid arthritis patients; experiment: Medicare claims cohort study of incident ADRD, HCQ vs methotrexate; type: in vivo, human
Excerpt: The full study protocol for patient-level analysis in Medicare claims was pre-registered on clinicaltrials.gov prior to data analysis (NCT04691505) and contains detailed information on implementation including all codes that were used to identify study variables to allow future replication. The following sections summarize key methodologic details. Data source: Medicare Fee-For-Service claims data from 2007 through 2017 were used. Medicare Part A (hospitalizations), B (medical services), and D (prescription medications) claims are available for research purposes through the Centers for Medicare and Medicaid Services. A signed data use agreement with the CMS was available and the Brigham and Women's Hospital's Institutional Review Board approved this study. Study cohort: A new user, active comparator, observational cohort study design comparing methotrexate to hydroxychloroquine was employed. The patients were required to have continuous enrollment in Medicare parts A, B, and D during the baseline period of 365 days before initiation date of methotrexate or hydroxychloroquine, which was defined as the cohort entry date. Patients were required to have ≥1 diagnosis codes of rheumatoid arthritis during the baseline period but no prior use of any disease modifying antirheumatic treatments. Patients with existing diagnosis of Alzheimer's disease and related dementia (ADRD) any time prior to and including cohort entry date were excluded to focus on incident events. Patients with nursing home admission in 365 days prior to and including cohort entry date also were excluded as medication records for short nursing home stays are unavailable in Medicare claims. Outcome measurement: The endpoint of ADRD was identified based on diagnosis codes, recorded on 1 inpatient claim or 2 outpatient claims, of Alzheimer's disease, vascular dementia, senile, presenile, or unspecified dementia, or dementia in other diseases classified elsewhere. […] Alternative analytic approaches: To accommodate various uncertainties involved in pharmacoepidemiologic investigations focused on ADRD risk, the following alternative analyses were employed. Analysis 1—‘As-treated’ follow-up approach: In this approach, the follow-up started on the day following the cohort entry date and continued until treatment discontinuation or switch (to comparator treatment), insurance disenrollment, death, or administrative endpoint (December 2017). A 90-day ‘grace period’ after the end of the expected days-supply of the most recently filled prescription was considered to define the treatment discontinuation date to accommodate for suboptimal adherence during treatment periods. […] This follow-up approach addresses concerns related to informative censoring if patients discontinue or if physicians de-prescribe the treatments under consideration because of memory problems associated with ADRD, but the diagnosis is not recorded in the electronic healthcare records until after the end of follow-up due to treatment-related censoring. Analysis 3—incorporating a 6-month ‘symptoms to diagnosis’ period: In this approach, an outcome date was assigned that was 6 months before the first recorded ADRD date and excluded last 6 months of follow-up for those who are censored without an event to account for the possibility that ADRD symptoms likely appear some time before a formal diagnosis is recorded in insurance records, which leads to misclassification of ADRD onset. […]

[3] = macaques; cited from earlier work
STAT3 = STAT3 (Mus musculus, UniProt P42227); experiment: Western blot of p-STAT3 in BV-2 phenotypic assays (Aβ1-42 clearance, LPS); type: cell-based; settings: 25 μM
Chain of STAT3 (P42227 whole entry): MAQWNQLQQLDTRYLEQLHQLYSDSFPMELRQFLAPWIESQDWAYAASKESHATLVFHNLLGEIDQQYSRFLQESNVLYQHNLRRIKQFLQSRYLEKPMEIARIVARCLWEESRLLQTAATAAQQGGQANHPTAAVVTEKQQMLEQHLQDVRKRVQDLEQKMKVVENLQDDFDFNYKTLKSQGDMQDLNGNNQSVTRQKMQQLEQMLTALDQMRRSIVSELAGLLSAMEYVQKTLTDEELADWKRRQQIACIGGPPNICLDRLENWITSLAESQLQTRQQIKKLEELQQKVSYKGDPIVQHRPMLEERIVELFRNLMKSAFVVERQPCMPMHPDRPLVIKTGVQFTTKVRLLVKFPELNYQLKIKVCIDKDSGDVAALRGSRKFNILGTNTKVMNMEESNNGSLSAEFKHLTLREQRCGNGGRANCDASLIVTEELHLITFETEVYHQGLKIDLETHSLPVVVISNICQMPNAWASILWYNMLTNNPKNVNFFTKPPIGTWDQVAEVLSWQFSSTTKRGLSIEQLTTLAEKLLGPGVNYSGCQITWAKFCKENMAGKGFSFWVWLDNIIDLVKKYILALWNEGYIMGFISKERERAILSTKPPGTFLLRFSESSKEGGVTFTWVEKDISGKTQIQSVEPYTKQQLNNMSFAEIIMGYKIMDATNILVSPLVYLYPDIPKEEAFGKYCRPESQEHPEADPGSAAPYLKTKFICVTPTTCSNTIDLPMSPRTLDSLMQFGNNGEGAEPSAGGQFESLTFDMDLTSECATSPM
Protocol: Western blot analyses: Samples for western blot analyses were prepared from 3 assays which provided evidence of HCQ-associated rescue (i.e., Ab1-42 clearance, tau phosphorylation, and LPS-induced neuroinflammation). Samples were prepared identically as described above in section: Effect of HCQ on AD-related phenotypes in cell culture, and scaled up to 24-well format to allow for adequate sample volume. After HCQ treatment, cells were washed once with PBS and harvested in 50 μl 50 mM HEPES+2% SDS lysis buffer. The extracts were then boiled at 95° C. for 5 mins. Analytic methods were identical to those described above in Example 4.
Statistical analyses: Statistical analysis was performed using STATA 16.1. Group differences were evaluated using two-sample t-tests (parametric) to calculate differences in p-STAT3 levels between HCQ treated and control samples. We additionally used the Wilcoxon rank-sum test (non-parametric) to confirm that results were robust to distributional assumptions. Significant differences were indicated as p<0.05.

[4] = albino rats; cited from earlier work
[5] = test system: SH-SY5Y-hTau441(V337M/R406W) cells; experiment: Tau phosphorylation assay (Phospho(Thr231)/Total Tau); type: cell-based, human; settings: 25 μM HCQ
Protocol: Tau Phosphorylation: SH-SY5Y-hTau441(V337M/R406W) cells were maintained in culture medium (DMEM medium, 10% FCS, 1% NEAA, 1% L-Glutamine, 100 g/mL Gentamycin, 300 μg/mL Geneticin G-418) and differentiated with 10 μM retinoic acid (RA) for 5 days changing medium every 2 to 3 days. Prior to the treatment, cells were seeded onto 24-well plates at a cell density of 2×10^5 cells per well (DIV1). Drug compounds were applied on DIV2. After 24 h of incubation (DIV3), cells on 24-well plates were harvested in 60 μL RIPA-Buffer [50 mM Tris pH 7.4, 1% Nonidet P40, 0.25% Na-deoxy-cholate, 150 mM NaCl, 1 mM EDTA supplemented with freshly added 1 μM NaF, 0.2 mM Na-ortho-vanadate, 80 μM Glycerophosphate, protease (Calbiochem) and phosphatase (Sigma) inhibitor cocktail]. Protein concentration was determined by BCA assay (Pierce, ThermoFisher) and samples were adjusted to a uniform total protein concentration. Total Tau and phosphorylated Tau were determined by immunosorbent assay from Mesoscale Discovery (Phospho(Thr231)/Total Tau Kit K15121D, Mesoscale Discovery).
Tau phosphorylation: SH-SY5Y-hTau441(V337M/R406W) cells were maintained in culture medium (DMEM medium, 10% FCS, 1% NEAA, 1% L-Glutamine, 100 μg/mL Gentamycin, 300 μg/mL Geneticin G-418) and differentiated with 10 μM retinoic acid (RA) for 5 days changing medium every 2 to 3 days. Prior to the treatment, cells were seeded onto 24-well plates at a cell density of 2×10^5 cells per well (DIV1). HCQ (25 μM) was applied on DIV2. After 24 h of incubation (DIV3), cells on 24-well plates were harvested in 60 μL RIPA-Buffer [50 mM Tris pH 7.4, 1% Nonidet P40, 0.25% Na-deoxy-cholate, 150 mM NaCl, 1 mM EDTA supplemented with freshly added 1 μM NaF, 0.2 mM Na-ortho-vanadate, 80 μM Glycerophosphate, protease (Calbiochem) and phosphatase (Sigma) inhibitor cocktail]. Protein concentration was determined by BCA assay (Pierce, ThermoFisher) and samples were adjusted to a uniform total protein concentration. Total Tau and phosphorylated Tau were determined by immunosorbent assay from Mesoscale Discovery (Phospho(Thr231)/Total Tau Kit K15121D, Mesoscale Discovery).
Tau Phosphorylation: SH-SY5Y-hTau441(V337M/R406W) cells were maintained in culture medium [DMEM medium, 10% FCS, 1% nonessential amino acids (NEAA), 1% l-glutamine, gentamycin (100 μg/ml), and geneticin G-418 (300 μg/ml)] and differentiated with 10 μM retinoic acid for 5 days changing medium every 2 to 3 days. […] Protein concentration was determined by BCA assay (Pierce, Thermo Fisher Scientific, Waltham, MA), and samples were adjusted to a uniform total protein concentration. Total tau and phosphorylated tau were determined by immunosorbent assay from Mesoscale Discovery [Phospho(Thr231)/Total Tau Kit K15121D, Mesoscale Discovery, Meso Scale Diagnostics]. […]

iPSCs = experiment: LPS induced neuroinflammation (iPSCs); type: cell-based; settings: posterior probability of a protective effect
Protocol: Cell-based assays: For each combination of drugs and assay, the posterior probability P(Hi|data) of protective, neutral, and adverse drug effect (formal hypotheses H1, H0, H2, respectively) were evaluated. Dose-response relationships (x-y data) were modeled with a Bayesian nonlinear regression model:
and Bayesian estimation of the posterior density of the fold change was performed using default settings of the Markov chain Monte Carlo samples implemented by the PyMC python library. For efficient sample, each bioactivity data set was standardized such that […] corresponded to one standard deviation. Diagnostic criteria (posterior sample of fitted curves, effective sample sizes, values of the r statistic, and Markov chain standard errors) were inspected for the fit and three poorly fitted data sets out of a total of 91 data sets were excluded.

Row | p-STAT3 (Tyr705) (STAT3; Aβ1-42 clearance assay, relative to VC) | p-STAT3 (Tyr705) (STAT3; LPS-induced neuroinflammation assay, vs VC) | Compound | neurite outgrowth and neurogenesis [1] | lower risk of ADRD ([2]; Analysis 1, as-treated, vs MTX initiators) | lower risk of ADRD ([2]; Analysis 2, as-started, 6-month induction period) | lower risk of ADRD ([2]; Analysis 3, 6-month symptom to claims period) | cumulative incidence of ADRD ([2]; after approximately 2 years of treatment, compared to MTX, all four analyses) | lowering of incident AD ([2]; relative to methotrexate, across analyses) | Kp brain/plasma [3] | Kp brain/plasma [4] | phosphorylated tau (ptau231) [5] | total tau [5] | effect in LPS induced neuroinflammation (iPSCs) (iPSCs)
1 | lowered | significantly lower | CCN(CCO)CCCC(C)Nc1ccnc2cc(Cl)ccc12 (stereo not shown) [HCQ, hydroxychloroquine] | No effects | 8% | 13% | 16% | lower cumulative incidence | 8-16% | 21.99±0.11 | 4-31 | reduced | reduced | 
2 |  |  | C[C@H](CCC(=O)NCCS(=O)(=O)O)[C@H]1CC[C@H]2[C@@H]3[C@@H](O)C[C@@H]4C[C@H](O)CC[C@]4(C)[C@H]3CC[C@]12C [TUDCA, tauroursodeoxycholic acid] |  |  |  |  |  |  |  |  |  |  | strongly protective

— patent US20240269128A1, “COMPOUNDS FOR TREATING OR PREVENTING ALZHEIMER'S DISEASE” (THE UNITED STATES OF AMERICA, as represented by the …, priority 2021, published 2024)
